Here are results for two compounds from US20100324137A1, “LAURIC ARGINATE AS A CONTACT ANTIMICROBIAL” (DIVERSEY, INC., priority 2009, published 2010).

Several values for one entry are separate records, joined by “and”; a condition that tells them apart may be missing. Equal values may be shown once.

The test system of the assay is E. coli. The experiment in a line: Antimicrobial effectiveness: E. coli contacted with sample for 30 seconds, survivors calculated. Particulars: 30 seconds contact. It is filed as cell-based. As to the method: The antimicrobial effectiveness of the present invention in combination with octenyl succinic acid was tested. In this application, the test organism was E. coli, which was contacted with either the control or the stated sample for 30 seconds, and the survivors were calculated.

On to `CCCCCCCCCCCC(=O)N[C@@H](CCCN=C(N)N)C(=O)OCC` [LA, ethyl lauroyl arginate], for which the “Percent Reduction” value was 96.494% and 96.299% (25 ppm active); 99.851% and 99.926% (50 ppm active); 99.979% and 99.975% (75 ppm active). Further, the Survivors runs as follows: (25 ppm active) 5,400,000 org/ml and 5,700,000 org/ml; (75 ppm active) 33,000 org/ml and 39,000 org/ml.

Take octenyl succinic acid [OSA]: the “Percent Reduction” value by setting is: (160 ppm active) 84.351% and 84.805%; (320 ppm active) 99.999%; (480 ppm active) 99.999%. Besides, the Survivors is, setting by setting: (160 ppm active) 24,100,000 org/ml and 23,400,000 org/ml; (320 ppm active) 2,000 org/ml and 2,200 org/ml; (480 ppm active) 1,900 org/ml and 1,920 org/ml.
